Results: US10364263B2, “Cyclic phosphates and cyclic phosphoramidates for the treatment of neurologic disorders” (Retrophin, Inc., priority 2015, dated 2019)

Test system: PANK2 silenced human neuroblastoma IMR32 cells (PANK2−/−)
Experiment: Coenzyme A assay in PANK2 silenced cells (LC-MS quantification of free CoA)
Type: cell-based
Conditions: compound added twice (24 h + 24 h), relative to 0.1% DMSO controls
Outline: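 Free intracellular CoA was measured by positive-mode LC-MS/MS of 20% TFA extracts, taking 2 μl per 10^6 cells as intracellular volume. Cells were IMR32 with stable lentiviral PANK2 knockdown, dosed twice 24 h apart (48 h total, 0.1% DMSO). Output is fold increase over vehicle.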

COC(=O)CCNC(=O)[C@@H]1OP(=O)(OCOC(=O)c2ocnc2C)OCC1(C)C (stereo partly drawn) [2-147, (((4R)-4-((3-methoxy-3-oxopropyl)carbamoyl)-5,5-dimethyl-2-oxido-1,3,2-dioxaphosphinan-2-yl)oxy)methyl 4-methyloxazole-5-carboxylate]
PANK2−/− CoA (Fold Increase): fold increase in Coenzyme A (CoA) levels relative to controls: 39.19 Fold Increase

COC(=O)CCNC(=O)[C@@H]1O[P@](=O)(OCOC(=O)c2scnc2C(C)C)OCC1(C)C [2-188, (((2R,4R)-4-((3-methoxy-3-oxopropyl)carbamoyl)-5,5-dimethyl-2-oxido-1,3,2-dioxaphosphinan-2-yl)oxy)methyl 4-isopropylthiazole-5-carboxylate]
PANK2−/− CoA (Fold Increase): fold increase in Coenzyme A (CoA) levels relative to controls: 131.48 Fold Increase

COC(=O)CCNC(=O)[C@@H]1O[P@@](=O)(OC(C)OC(=O)C(C)C)OCC1(C)C (stereo partly drawn) [compound 106, 1-(((2S,4R)-4-((3-methoxy-3-oxopropyl)carbamoyl)-5,5-dimethyl-2-oxido-1,3,2-dioxaphosphinan-2-yl)oxy)ethyl isobutyrate]
PANK2−/− CoA (Fold Increase): fold increase in Coenzyme A (CoA) levels relative to controls: 2.66 Fold Increase

COC(=O)CCNC(=O)[C@@H]1OP(=O)(OCOC(=O)NCCOC(=O)C(C)(C)C)OCC1(C)C (stereo partly drawn) [2-183, 2-((((((4R)-4-((3-methoxy-3-oxopropyl)carbamoyl)-5,5-dimethyl-2-oxido-1,3,2-dioxaphosphinan-2-yl)oxy)methoxy)carbonyl)amino)ethyl pivalate]
PANK2−/− CoA (Fold Increase): fold increase in Coenzyme A (CoA) levels relative to controls: 3.5 Fold Increase

COC(=O)CCNC(=O)[C@@H]1OP(=O)(OCOC(=O)c2cnco2)OCC1(C)C (stereo partly drawn) [Compound No. 87, (((4R)-4-((3-methoxy-3-oxopropyl)carbamoyl)-5,5-dimethyl-2-oxido-1,3,2-dioxaphosphinan-2-yl)oxy)methyl oxazole-5-carboxylate]
PANK2−/− CoA (Fold Increase): fold increase in Coenzyme A (CoA) levels relative to controls: 58.7 Fold Increase

COC(=O)CCNC(=O)[C@@H]1O[P@](=O)(OCOC(=O)c2ccnn2C)OCC1(C)C [2-185, (((2R,4R)-4-((3-methoxy-3-oxopropyl)carbamoyl)-5,5-dimethyl-2-oxido-1,3,2-dioxaphosphinan-2-yl)oxy)methyl 1-methyl-1H-pyrazole-5-carboxylate]
PANK2−/− CoA (Fold Increase): fold increase in Coenzyme A (CoA) levels relative to controls: 114.15 Fold Increase

COC(=O)CCNC(=O)[C@@H]1O[P@@](=O)(Oc2ccc([N+](=O)[O-])cc2)OCC1(C)C [2-121, methyl 3-((2S,4R)-5,5-dimethyl-2-(4-nitrophenoxy)-2-oxido-1,3,2-dioxaphosphinane-4-carboxamido)propanoate]
PANK2−/− CoA (Fold Increase): fold increase in Coenzyme A (CoA) levels relative to controls: 1.59 Fold Increase

CC(C)(C)C(=O)OCO[P@@]1(=O)OCC(C)(C)[C@H](C(=O)NCCC(=O)OCCC#N)O1 (single isomer, unassigned) [Compound No. 77]
PANK2−/− CoA (Fold Increase): fold increase in Coenzyme A (CoA) levels relative to controls: 93.86 Fold Increase

COC(=O)CCNC(=O)[C@@H]1O[P@@](=O)(OCn2ccnc2)OCC1(C)C [2-132, methyl 3-((2S,4R)-2-((1H-imidazol-1-yl)methoxy)-5,5-dimethyl-2-oxido-1,3,2-dioxaphosphinane-4-carboxamido)propanoate]
PANK2−/− CoA (Fold Increase): fold increase in Coenzyme A (CoA) levels relative to controls: 0.93 Fold Increase

CCN(CC)C(=O)[C@H](Cc1ccccc1)NC(=O)OCOP1(=O)OCC(C)(C)[C@H](C(=O)NCCC(=O)OC)O1 (stereo partly drawn) [2-135, methyl 3-((4R)-2-(((((S)-1-(diethylamino)-1-oxo-3-phenylpropan-2-yl)carbamoyl)oxy)methoxy)-5,5-dimethyl-2-oxido-1,3,2-dioxaphosphinane-4-carboxamido)propanoate]
PANK2−/− CoA (Fold Increase): fold increase in Coenzyme A (CoA) levels relative to controls: 1.7 Fold Increase

COC(=O)CCNC(=O)[C@@H]1O[P@@](=O)(OCOC(=O)N[C@@H](CSC(=O)C(C)(C)C)C(=O)OCc2ccccc2)OCC1(C)C [2-164, Benzyl N-(((((2S,4R)-4-((3-methoxy-3-oxopropyl)carbamoyl)-5,5-dimethyl-2-oxido-1,3,2-dioxaphosphinan-2-yl)oxy)methoxy)carbonyl)-S-pivaloyl-L-cysteinate]
PANK2−/− CoA (Fold Increase): fold increase in Coenzyme A (CoA) levels relative to controls: 101.86 Fold Increase

COC(=O)CCNC(=O)[C@@H]1O[P@](=O)(OC(C)OC(=O)C(C)(C)C)OCC1(C)C (stereo partly drawn) [compound 102, 1-(((2R,4R)-4-((3-methoxy-3-oxopropyl)carbamoyl)-5,5-dimethyl-2-oxido-1,3,2-dioxaphosphinan-2-yl)oxy)ethyl pivalate]
PANK2−/− CoA (Fold Increase): fold increase in Coenzyme A (CoA) levels relative to controls: 2.5 Fold Increase

CCOC(=O)[C@H](Cc1ccccc1)NC(=O)OCOP1(=O)OCC(C)(C)[C@H](C(=O)NCCC(=O)OC)O1 (stereo partly drawn) [2-137, ethyl (((((4R)-4-((3-methoxy-3-oxopropyl)carbamoyl)-5,5-dimethyl-2-oxido-1,3,2-dioxaphosphinan-2-yl)oxy)methoxy)carbonyl)-L-phenylalaninate]
PANK2−/− CoA (Fold Increase): fold increase in Coenzyme A (CoA) levels relative to controls: 1.1 Fold Increase

COC(=O)CCNC(=O)[C@@H]1O[P@@](=O)(Oc2ccc(C#N)cc2)OCC1(C)C [2-116, methyl 3-((2S,4R)-2-(1-cyanophenoxy)-5,5-dimethyl-2-oxido-1,3,2-dioxaphosphinane-4-carboxamido)propanoate]
PANK2−/− CoA (Fold Increase): fold increase in Coenzyme A (CoA) levels relative to controls: 0.95 Fold Increase

CO[13C](=O)[13CH2][13CH2][15NH]C(=O)[C@@H]1OP(=O)(Oc2ccccc2)OCC1(C)C (stereo partly drawn) [2-109, methyl 3-((4R)-5,5-dimethyl-2-oxido-2-phenoxy-1,3,2-dioxaphosphinane-4-carboxamido-15N)propanoate-1,2,3-13C3]
PANK2−/− CoA (Fold Increase): fold increase in Coenzyme A (CoA) levels relative to controls: 2.04 Fold Increase

COC(=O)CCNC(=O)[C@@H]1O[P@@](=O)(N[C@@H](C)C(=O)OC)OCC1(C)C [1-52, methyl 3-((2R,4R)-2-(((S)-1-methoxy-1-oxopropan-2-yl)amino)-5,5-dimethyl-2-oxido-3,3,2-dioxaphosphinane-4-carboxamido)propanoate]
PANK2−/− CoA (Fold Increase): fold increase in Coenzyme A (CoA) levels relative to controls: 2.09 Fold Increase

COC(=O)CCNC(=O)[C@@H]1O[P@](=O)(NCC2CCCO2)OCC1(C)C (stereo partly drawn) [compound 119, methyl 3-((2S,4R)-5,5-dimethyl-2-oxido-2-(((tetrahydrofuran-2-yl)methyl)amino)-1,3,2-dioxaphosphinane-4-carboxamido)propanoate]
PANK2−/− CoA (Fold Increase): fold increase in Coenzyme A (CoA) levels relative to controls: 1.44 Fold Increase

COC(=O)CCNC(=O)[C@@H]1O[P@](=O)(N2CCOCC2)OCC1(C)C [compound 135, methyl 3-((2S,4R)-5,5-dimethyl-2-morpholino-2-oxido-1,3,2-dioxaphosphinane-4-carboxamido)propanoate]
PANK2−/− CoA (Fold Increase): fold increase in Coenzyme A (CoA) levels relative to controls: 1.3 Fold Increase

CCOC(=O)[C@H](CCc1ccccc1)NP1(=O)OCC(C)(C)[C@H](C(=O)NCCC(=O)OC)O1 (stereo partly drawn) [compound 6, ethyl (2S)-2-[[(4R)-4-[(3-methoxy-3-oxo-propyl)carbamoyl]-5,5-dimethyl-2-oxo-1,3,2-dioxaphosphinan-2-yl]amino]-4-phenyl-butanoate]
PANK2−/− CoA (Fold Increase): fold increase in Coenzyme A (CoA) levels relative to controls: 1.11 Fold Increase

CC(C)OC(=O)OCOP1(=O)OCC(C)(C)[C@H](C(=O)NCCC(=O)O)O1 (stereo partly drawn) [Compound No. 104, 3-((4R)-2-(((isopropoxycarbonyl)oxy)methoxy)-5,5-dimethyl-2-oxido-1,3,2-dioxaphosphinane-4-carboxamido)propanoic acid]
PANK2−/− CoA (Fold Increase): fold increase in Coenzyme A (CoA) levels relative to controls: 75.24 Fold Increase

COC(=O)CCNC(=O)[C@@H]1O[P@](=O)(Oc2ccccc2C(=O)OC)OCC1(C)C [2-166]
PANK2−/− CoA (Fold Increase): fold increase in Coenzyme A (CoA) levels relative to controls: 3.61 Fold Increase

COC(=O)CCNC(=O)[C@@H]1O[P@@](=O)(OCOC(=O)c2scnc2C(C)C)OCC1(C)C [2-187, (((2S,4R)-4-((3-methoxy-3-oxopropyl)carbamoyl)-5,5-dimethyl-2-oxido-1,3,2-dioxaphosphinan-2-yl)oxy)methyl 4-isopropylthiazole-5-carboxylate]
PANK2−/− CoA (Fold Increase): fold increase in Coenzyme A (CoA) levels relative to controls: 112.41 Fold Increase

COC(=O)CCNC(=O)[C@@H]1OP(=O)(N2CCCCC2)OCC1(C)C (stereo in doubt) [compound 133, methyl 3-((2R,4R)-5,5-dimethyl-2-oxido-2-(piperidin-1-yl)-1,3,2-dioxaphosphinane-4-carboxamido)propanoate]
PANK2−/− CoA (Fold Increase): fold increase in Coenzyme A (CoA) levels relative to controls: 1.45 Fold Increase

COC(=O)CCNC(=O)[C@@H]1OP(=O)(OCOC(=O)NCCSC(=O)[C@@H](NC(=O)OCc2ccccc2)C(C)C)OCC1(C)C (stereo partly drawn) [2-175, methyl 3-((4R)-2-(((S)-9-isopropyl-3,8,11-trioxo-13-phenyl-2,12-dioxa-7-thia-4,10-diazatridecyl)oxy)-5,5-dimethyl-2-oxido-1,3,2-dioxaphosphinane-4-carboxamido)propanoate]
PANK2−/− CoA (Fold Increase): fold increase in Coenzyme A (CoA) levels relative to controls: 9.31 Fold Increase

COC(=O)CCNC(=O)[C@@H]1O[P@](=O)(Oc2ccc([N+](=O)[O-])cc2)OCC1(C)C (single isomer, unassigned) [Compound No. 2-120]
PANK2−/− CoA (Fold Increase): fold increase in Coenzyme A (CoA) levels relative to controls: 21.05 Fold Increase

COC(=O)CCNC(=O)[C@@H]1O[P@@](=O)(OCOC(=O)c2cc(C)nn2C)OCC1(C)C [2-182, (((2S,4R)-4-((3-methoxy-3-oxopropyl)carbamoyl)-5,5-dimethyl-2-oxido-1,3,2-dioxaphosphinan-2-yl)oxy)methyl 1,3-dimethyl-lH-pyrazole-5-carboxylate]
PANK2−/− CoA (Fold Increase): fold increase in Coenzyme A (CoA) levels relative to controls: 24.98 Fold Increase

COC(=O)CCNC(=O)[C@@H]1O[P@@](=O)(OCOC(=O)NC(C)(C)COC(=O)[C@@H](NC(=O)OCc2ccccc2)C(C)C)OCC1(C)C [2-172, 2-((((((2S,4R)-4-((3-methoxy-3-oxopropyl)carbamoyl)-5,5-dimethyl-2-oxido-1,3,2-dioxaphosphinan-2-yl)oxy)methoxy)carbonyl)amino)-2-methylpropyl ((benzyloxy)carbonyl)-L-valinate]
PANK2−/− CoA (Fold Increase): fold increase in Coenzyme A (CoA) levels relative to controls: 1.95 Fold Increase
